Assay: xn = mol fraction of the nth substance listed

CC(=O)N(C)C + CCCCO
viscosity [mPa·s]
Conditions	298.15 K	303.15 K	313.15 K
100 kPa, x1 = 0.0565	2.252	–	1.598
100 kPa, x1 = 0.1063	2.049	–	1.477
100 kPa, x1 = 0.2094	1.716	–	1.287
100 kPa, x1 = 0.3134	1.503	–	1.15
100 kPa, x1 = 0.4106	1.361	–	1.063
100 kPa, x1 = 0.5083	1.263	–	0.9979
100 kPa, x1 = 0.6042	1.179	–	0.9502
100 kPa, x1 = 0.7096	1.119	–	0.9082
100 kPa, x1 = 0.8046	1.061	–	0.8651
100 kPa, x1 = 0.9078	0.9922	–	0.8128
100 kPa, x1 = 0.9575	0.9601	–	0.7894
101 kPa, x1 = 0.0968	–	1.862	–
101 kPa, x1 = 0.1997	–	1.585	–
101 kPa, x1 = 0.2976	–	1.43	–
101 kPa, x1 = 0.4	–	1.281	–
101 kPa, x1 = 0.4956	–	1.181	–
101 kPa, x1 = 0.599	–	1.097	–
101 kPa, x1 = 0.6978	–	1.029	–
101 kPa, x1 = 0.7867	–	0.975	–
101 kPa, x1 = 0.9006	–	0.917	–

CCCCCCCCCO + CCCCO
viscosity [mPa·s]
Conditions	293.15 K	298.15 K	308.15 K	318.15 K
101 kPa, x2 = 0.05	–	8.644	6.182	4.486
101 kPa, x2 = 0.1	–	8.219	5.878	4.303
101 kPa, x2 = 0.15	–	7.816	5.598	4.121
101 kPa, x2 = 0.2	–	7.431	5.336	3.941
101 kPa, x2 = 0.25	–	7.062	5.089	3.764
101 kPa, x2 = 0.3	–	6.704	4.852	3.589
101 kPa, x2 = 0.35	–	6.356	4.623	3.418
101 kPa, x2 = 0.4	–	6.016	4.398	3.251
101 kPa, x2 = 0.45	–	5.681	4.177	3.088
101 kPa, x2 = 0.5	–	5.353	3.957	2.929
101 kPa, x2 = 0.55	–	5.029	3.738	2.774
101 kPa, x2 = 0.6	–	4.71	3.52	2.623
101 kPa, x2 = 0.65	–	4.397	3.303	2.477
101 kPa, x2 = 0.7	–	4.091	3.088	2.335
101 kPa, x2 = 0.75	–	3.793	2.877	2.198
101 kPa, x2 = 0.8	–	3.506	2.672	2.064
101 kPa, x2 = 0.85	–	3.234	2.476	1.933
101 kPa, x2 = 0.9	–	2.977	2.292	1.806
101 kPa, x2 = 0.95	–	2.742	2.125	1.681
101.33 kPa, x2 = 0.1608	9.868	–	–	–
101.33 kPa, x2 = 0.2186	–	7.719	–	–
101.33 kPa, x2 = 0.3832	7.621	–	–	–
101.33 kPa, x2 = 0.4166	–	6.168	–	–
101.33 kPa, x2 = 0.5129	–	5.48	–	–
101.33 kPa, x2 = 0.5372	6.237	–	–	–
101.33 kPa, x2 = 0.6368	–	4.634	–	–
101.33 kPa, x2 = 0.6674	5.169	–	–	–
101.33 kPa, x2 = 0.7995	4.296	–	–	–
101.33 kPa, x2 = 0.8253	–	3.486	–	–
101.33 kPa, x2 = 0.8991	3.529	–	–	–
101.33 kPa, x2 = 0.9103	–	3.019	–	–

Reference: the CheMixHub viscosity set
